Results taken from ChEMBL document CHEMBL1938270, “Synthesis and antifungal activity of natural product-based 6-alkyl-2,3,4,5-tetrahydropyridines” (J Nat Prod, 2011).
≈ marks a conversion by molar mass, not a printed value. Calls of active or inactive are those of the source. No cut-off for these calls is given here.

How the values were obtained:
SK-MEL = assay: Cytotoxicity against human SK-MEL cells at 10 ug/ml by neutral red assay; format: cell-based
Candida albicans [1] = assay: Antifungal activity against Candida albicans ATCC 90028 at 20 ug/ml after 24 to 72 hrs by M27-A2 CLSI method; format: functional, organism-based
Nakaseomyces glabratus [2] = assay: Antifungal activity against Candida glabrata ATCC 90030 after 24 to 72 hrs by M27-A2 CLSI method; format: functional
Vero = assay: Cytotoxicity against african green monkey Vero cells at 10 ug/ml by neutral red assay; format: cell-based; settings: chlorocebus sabaeus
SK-OV-3 = assay: Cytotoxicity against human SKOV3 cells at 10 ug/ml by neutral red assay; format: cell-based
LLC-PK1 = assay: Cytotoxicity against pig LLC-PK1 cells at 10 ug/ml by neutral red assay; format: cell-based, Sus scrofa
Pichia kudriavzevii [3] = assay: Antifungal activity against Candida Krusei ATCC 6258 after 24 to 72 hrs by M27-A2 CLSI method; format: functional
BT-549 = assay: Cytotoxicity against human BT549 cells at 10 ug/ml by neutral red assay; format: cell-based
Cryptococcus neoformans [4] = assay: Antifungal activity against Cryptococcus neoformans ATCC 90113 after 24 to 72 hrs by M27-A2 CLSI method; format: functional
KB = assay: Cytotoxicity against human KB cells at 10 ug/ml by neutral red assay; format: cell-based
Candida albicans [5] = assay: Antifungal activity against Candida albicans ATCC 90028 after 24 to 72 hrs by M27-A2 CLSI method; format: functional
Nakaseomyces glabratus [6] = assay: Antifungal activity against Candida glabrata ATCC 90030 at 20 ug/ml after 24 to 72 hrs by M27-A2 CLSI method; format: functional, organism-based
Aspergillus fumigatus [7] = assay: Antifungal activity against Aspergillus fumigatus ATCC 204305 after 24 to 72 hrs by M27-A2 CLSI method; format: functional, organism-based
Cryptococcus neoformans [8] = assay: Antifungal activity against Cryptococcus neoformans ATCC 90113 at 20 ug/ml after 24 to 72 hrs by M27-A2 CLSI method; format: functional, organism-based
Aspergillus fumigatus [9] = assay: Antifungal activity against Aspergillus fumigatus ATCC 204305 at 20 ug/ml after 24 to 72 hrs by M27-A2 CLSI method; format: functional, organism-based
Pichia kudriavzevii [10] = assay: Antifungal activity against Candida Krusei ATCC 6258 at 20 ug/ml after 24 to 72 hrs by M27-A2 CLSI method; format: functional, organism-based

Row | SMILES | MIC (Candida albicans [1]) | MIC (Nakaseomyces glabratus [2]) [µg/mL] | MIC (Pichia kudriavzevii [3]) [µg/mL] | MIC (Cryptococcus neoformans [4]) [µg/mL] | Activity (SK-MEL) | MFC (Nakaseomyces glabratus [2]) [µg/mL] | Activity (Vero) | Activity (SK-OV-3) | Activity (LLC-PK1) | MFC (Pichia kudriavzevii [3]) [µg/mL] | Activity (BT-549) | MFC (Cryptococcus neoformans [4]) [µg/mL] | Activity (KB) | further results
1 | CCCCCCCCCCCCCCCC1=NCCCC1 | inactive | 10 (≈ 34.1 µM) | 10 (≈ 34.1 µM) | 11.2 (≈ 38.2 µM) | Non-toxic | 15 (≈ 51.1 µM) | Non-toxic | Non-toxic | Non-toxic | 15 (≈ 51.1 µM) | Non-toxic | 12.5 (≈ 42.6 µM) | Non-toxic | 
2 | CCCCCCCCCCCCCC1=NCCCC1 |  |  |  |  |  |  |  |  |  |  |  |  |  | Activity (Candida albicans [1]): inactive; Activity (Nakaseomyces glabratus [6]): inactive; Activity (Aspergillus fumigatus [7]): inactive; Activity (Cryptococcus neoformans [8]): inactive; Activity (Aspergillus fumigatus [9]): inactive
3 | CCCCCCCCCCCCCCC1=NCCCC1 | inactive |  |  | 10 (≈ 35.8 µM) | Non-toxic |  | Non-toxic | Non-toxic | Non-toxic |  | Non-toxic | 10 (≈ 35.8 µM) | Non-toxic | MIC (Pichia kudriavzevii [10]): inactive; MIC (Nakaseomyces glabratus [6]): inactive
4 | C[C@@H]1[C@H](O)[C@@H](C)/C=C/C=C/C=C/C=C/C=C/C=C/C=C/[C@H](O[C@@H]2O[C@H](C)[C@@H](O)[C@H](N)[C@@H]2O)C[C@@H]2O[C@](O)(C[C@@H](O)C[C@@H](O)[C@H](O)CC[C@@H](O)C[C@@H](O)CC(=O)O[C@H]1C)C[C@H](O)[C@H]2C(=O)O [AMPHOTERICIN B] |  | 0.63 (≈ 0.682 µM) | 1.25 (≈ 1.35 µM) | 0.47 (≈ 0.509 µM) |  | 0.94 (≈ 1.02 µM) |  |  |  | 1.25 (≈ 1.35 µM) |  | 0.47 (≈ 0.509 µM) |  | MIC (Candida albicans [5]): 0.47 µg/mL (≈ 0.509 µM)
5 | CCCCCCCCCCCCC1=NCCCC1 |  |  |  |  |  |  |  |  |  |  |  |  |  | Activity (Candida albicans [1]): inactive; Activity (Nakaseomyces glabratus [6]): inactive; Activity (Aspergillus fumigatus [7]): inactive; Activity (Cryptococcus neoformans [8]): inactive; Activity (Aspergillus fumigatus [9]): inactive

Continued, in another order:

Row | MIC (Candida albicans [1]) | MIC (Nakaseomyces glabratus [2]) [µg/mL] | MIC (Pichia kudriavzevii [3]) [µg/mL] | MIC (Cryptococcus neoformans [4]) [µg/mL] | SMILES | Activity (SK-MEL) | MFC (Nakaseomyces glabratus [2]) [µg/mL] | Activity (Vero) | Activity (SK-OV-3) | Activity (LLC-PK1) | MFC (Pichia kudriavzevii [3]) [µg/mL] | Activity (BT-549) | MFC (Cryptococcus neoformans [4]) [µg/mL] | Activity (KB) | further results
6 | inactive | 5 (≈ 15.5 µM) | 15 (≈ 46.6 µM) | 2.5 (≈ 7.77 µM) | CCCCCCCCCCCCCCCCCC1=NCCCC1 | Non-toxic | 7.5 (≈ 23.3 µM) | Non-toxic | Non-toxic | Non-toxic | 15 (≈ 46.6 µM) | Non-toxic | 3.8 (≈ 11.8 µM) | Non-toxic | 
7 |  | 7.5 (≈ 24.4 µM) | 7.5 (≈ 24.4 µM) | 3.8 (≈ 12.4 µM) | CCCCCCCCCCCCCCCCC1=NCCCC1 | Non-toxic | 7.5 (≈ 24.4 µM) | Non-toxic | Non-toxic | Non-toxic | 7.5 (≈ 24.4 µM) | Non-toxic | 3.8 (≈ 12.4 µM) | Non-toxic | MFC (Candida albicans [5]): 15 µg/mL (≈ 48.8 µM); MIC (Candida albicans [5]): 15 µg/mL (≈ 48.8 µM)
8 | inactive | 10 (≈ 29.8 µM) |  | 10 (≈ 29.8 µM) | CCCCCCCCCCCCCCCCCCC1=NCCCC1 | Non-toxic | 15 (≈ 44.7 µM) | Non-toxic | Non-toxic | Non-toxic |  | Non-toxic | 15 (≈ 44.7 µM) | Non-toxic | MIC (Pichia kudriavzevii [10]): inactive
